PMC10816808, “Enhancement of the Antitumor and Antimetastatic Effect of Topotecan and Normalization of Blood Counts in Mice with Lewis Carcinoma by Tdp1 Inhibitors—New Usnic Acid Derivatives” (International Journal of Molecular Sciences, 2024)
Several values for one entry are separate records, joined by “and”; a condition that tells them apart may be missing. Equal values may be shown once.

Assays:
[1] = tested on: Krebs-2 ascitic carcinoma; test: Antitumor effect in the Krebs-2 ascitic carcinoma model; format: in vivo, mice; details: for average ascites weight: C57BL mice with Krebs-2, single dose on day 4; for average ascites weight / Average number of tumor cells in ascites: mean ± SD; for Ascites weight / Total number of tumor cells / Tumor cell concentration: individual animals; for Ascites weight / Total number of tumor cells / Tumor cell concentration / Average number of tumor cells in ascites: mice with Krebs-2
Excerpt: The Krebs-2 cancer cell line was obtained from the cell depository of the Institute of Cytology and Genetics SB RAS (Novosibirsk, Russia), and is maintained in mice as a transplanted tumor. Krebs-2 carcinoma is nonspecific to the different genetic constitutions of mice and is weakly immunogenic for mice of all strains. The biological source of Krebs-2 is the epithelial cells of the abdominal wall of the mouse. With intraperitoneal transplantation of tumor cells, an ascitic form is formed.
The effect of the drugs was assessed by the weight of ascites and the number of tumor cells in it.
Strain-nonspecific Krebs-2 ascitic carcinoma was grafted to C57BL mice. Tumor cells were suspended in 0.9% NaCl prior to grafting and injected intraperitoneally (2 million cells per mouse, in 0.2 mL). An ascitic tumor develops after intraperitoneal inoculation, has low immunogenicity, and produces no metastasis during the experiment at the used dose of tumor cells.
The mice were also divided into groups of 6–7 individuals. Treatment was carried out once on the 4th day after tumor transplantation: • - Group 1—Intact control—mice of this group were inoculated with a tumor, receiving 0.2 mL of saline intraperitoneally; • - Group 2—DMSO-Tween-80—mice were injected once intragastrically with a probe 200 μL of a solution containing saline, Tween-80 (10%), and DMSO (15%); • - Group 3—DMSO-Tween-80—mice were injected once intraperitoneally with a solvent for 7; • - Group 4—Tpc (aqueous solution)—mice were injected once intraperitoneally with 200 µL of Tpc at a single dose of 1 mg/kg; • - Group 5—Tpc + 7 i/g—mice received Tpc once as described for groups 3 and 7 in the form of 200 µL of suspension in Tween-80-DMSO once intragastrically at a dose of 50 mg/kg; • - Group 6—Tpc + 7 i/p—mice were injected with topotecan once as described for groups 3 and 7 in the form of 200 µL of suspension Tween-80-DMSO once intraperitoneally at a dose of 50 mg/kg; • - Group 7—7 i/g—mice were injected with 7 as described for group 5; • - Group 8—7 i/p—mice were injected with 7 as described for group 6.
The ascitic tumor weight and the cancer cell concentration in the ascitic fluid (as counted with a Goryaev chamber) were evaluated at the end of the experiment to estimate the effects of the substances. To prepare the samples for cell counting with a Goryaev chamber, 10 μL of the ascitic fluid was combined with 400 μL of saline (a 40-fold dilution). Cells were counted in five large squares, each divided into 16 small squares (80 squares in total) at a low magnification.

[2] = Toxic effect in mice with LLC (body weight, liver and spleen indices)
Excerpt: (§1) We also studied the effect of topotecan, compound 7, and their combinations on changes in body weight of mice with LLC from days 1 to 18 after tumor transplantation and of mice with Krebs-2 carcinoma from days 1 to 8.
(§2) In addition, at the end of the experiments, we removed and weighed the liver and spleen, and calculated the liver and spleen indices.
(§3) The toxic effects of the substances were inferred from the changes in body weight during the experiment (the mice with LLC were weighed on days 1, 3, 5, 7, 10, 12, 14, 16, and 18 after grafting) and the liver and spleen weight indices at the end of the experiment.

[3] = Toxic effect in mice with Krebs-2 carcinoma (body weight, liver and spleen indices); format: in vivo; details: for Weight of an individual with ascites / Weight of an individual without ascites: individual animals, mice with Krebs-2; for organ index, Liver (group mean) / organ index, Spleen (group mean): mice with Krebs-2 carcinoma
Excerpt: as §1, §2, §3

[4] = Leukocyte and erythrocyte counts in peripheral blood of mice with Krebs-2 carcinoma; format: in vivo
Procedure: We also counted leukocytes and erythrocytes in mice with Krebs-2 carcinoma. […] An increase in white blood cell count in the peripheral blood is associated with the inflammatory process that develops during tumor formation and growth. […] It should be noted that topotecan at the dose of 1 mg/kg was not hemotoxic and partly normalized the concentrations of leukocytes and erythrocytes, apparently due to its antitumor effect. Treatment of mice with only compound 7, regardless of the route of administration, reduced the number of leukocytes somewhat more effectively than the drugs listed above, but the decrease was significant only in comparison with the control without treatment.
White and red blood cell counts were determined using a Goryaev chamber using a BIOSCOP-1 microscope (LOMO-MA, St. Petersburg, Russia).

[5] = 7 50 mg/kg i/g, alone or with Tpc 1 mg/kg i/p
[6] = Tpc 1 mg/kg i/p and/or 7 50 mg/kg i/p

Row | Structure (SMILES) | average ascites weight [1, 6] | Ascites weight [1, 6] | Total number of tumor cells [1, 6] | Tumor cell concentration [1, 6] | Average number of tumor cells in ascites [1, 6] | changes in body weight of mice (in words) ([2]; mouse, in vivo) | organ index, Spleen (group mean) ([2]; mouse, in vivo) [%] | Weight of an individual with ascites [3, 6] | Weight of an individual without ascites [3, 6] | organ index, Liver (group mean) ([3]; Topotecan and/or 7 i/p) [%] | organ index, Spleen (group mean) ([3]; Topotecan and/or 7 i/p) [%] | Concentration of erythrocytes in peripheral blood [4, 6] [million/µL] | Concentration of leukocytes in peripheral blood [4, 6] [thousand/µL] | also measured
1 | C/C(NCCCc1cc(C(C)(C)C)c(O)c(C(C)(C)C)c1)=C1\C(=O)C=C2Oc3c(-c4csc(N/N=C/c5ccc(Br)cc5)n4)c(O)c(C)c(O)c3[C@@]2(C)C1=O [Compound 7, (4E)-10-{2-[(E)-2-[(4-bromophenyl)methylidene]hydrazin-1-yl]-1,3-thiazole-4-yl}-4-(1-{[3-(3,5-di-tret-butyl-4-hydroxyhenyl)propyl]amino}ethylidene)-11,13-dihydroxy-2,12-dimethyl-8-oxatricyclo [7.4.0.02,7]trideca-1(13),6,9,11-tetraen-3,5-dione] | 4,1±1,4 g | 3.1 g and 2.4 g and 4.5 g and 5.5 g and 2.1 g and 5.2 g and 6.2 g | 204.6 million and 105.6 million and 234 million and 165 million and 44.1 million and 530.4 million and 576.6 million | 66 million/ml and 44 million/ml and 52 million/ml and 30 million/ml and 21 million/ml and 102 million/ml and 93 million/ml | 265,8±164,4 million | tendency towards an increase in the weight of animals | 1.3±0.2 | 21.5 g and 22.2 g and 21.3 g and 22.1 g and 23.4 g and 24.9 g | 18.4 g and 19.8 g and 16.8 g and 16.6 g and 19.4 g and 18.2 g and 18.7 g | 4.1±0.3 | 1.0±0.1 | 7 ± 0.6 | 10.1 ± 0.9 | average ascites weight [1, 5]: 5±0,5 g; Ascites weight [1, 5]: 4.6 g and 6.2 g and 5.1 g and 4.5 g; Total number of tumor cells [1, 5]: 372.6 million and 403 million and 230 million and 209.1 million and 162 million; Tumor cell concentration [1, 5]: 81 million/ml and 65 million/ml and 50 million/ml and 41 million/ml and 36 million/ml; Average number of tumor cells in ascites [1, 5]: 275,3±90 million; tolerability / acute toxic effect (in words) ([2]; mouse, in vivo): well tolerated and did not cause acute toxic effect; Weight of an individual with ascites [3, 5]: 24.5 g and 22.7 g and 21 g and 23.3 g; Weight of an individual without ascites [3, 5]: 19.9 g and 16.5 g and 16.4 g and 19.4 g and 18.8 g; organ index, Liver (group mean) ([3]; 7 i/g, alone or with Topotecan): 4.4±0.5%; organ index, Spleen (group mean) ([3]; 7 i/g, alone or with Topotecan): 1.2±0.1%; Concentration of erythrocytes in peripheral blood [4, 5]: 7.2 ± 0.6 million/µL; Concentration of leukocytes in peripheral blood [4, 5]: 10.7 ± 0.8 thousand/µL
2 | CC[C@@]1(O)C(=O)OCc2c1cc1n(c2=O)Cc2cc3c(CN(C)C)c(O)ccc3nc2-1 [Tpc, topotecan] | 3±0,9 g | 2.3 g and 5.6 g and 3.5 g and 2 g and 2.9 g and 2.4 g | 218.5 million and 459.2 million and 266 million and 182 million and 188.5 million and 120 million and 148.8 million | 95 million/ml and 82 million/ml and 76 million/ml and 91 million/ml and 65 million/ml and 50 million/ml and 62 million/ml | 226,1±78 million | tendency towards an increase in the weight of animals | 1.19±0.04 | 21 g and 23.5 g and 23.4 g and 21.2 g and 22.9 g and 21.4 g and 21.9 g | 18.7 g and 17.9 g and 19.9 g and 19.2 g and 20 g and 19 g and 19.5 g | 4.8±0.6 | 1.3±0.2 | 7.6 ± 0.4 | 11.2 ± 0.7 | tolerability / acute toxic effect (in words) ([2]; mice with LLC and mice with Krebs-2 carcinoma): well tolerated and did not cause acute toxic effect; organ index, Liver (group mean) ([2]; mouse, in vivo): 5.6±0.7%; hemotoxicity (in words) ([4]; dose of 1 mg/kg): not hemotoxic
